Results reported in patent publication US10759781B2, “Substituted guanidine derivatives” (UBE INDUSTRIES, LTD., priority 2015, dated 2020).

What follows are compounds tested against T1, Human VAP-1 enzyme (Homo sapiens, UniProt Q16853) (assay: Human VAP-1 enzyme inhibition test). Settings: 1 h; compound 30 nM; 14C-benzylamine 100 μM; read-out: inhibition ratio (human VAP-1 enzyme).
T1 construct: purchased R&D Systems, Inc
T1 sequence (Q16853 1-763): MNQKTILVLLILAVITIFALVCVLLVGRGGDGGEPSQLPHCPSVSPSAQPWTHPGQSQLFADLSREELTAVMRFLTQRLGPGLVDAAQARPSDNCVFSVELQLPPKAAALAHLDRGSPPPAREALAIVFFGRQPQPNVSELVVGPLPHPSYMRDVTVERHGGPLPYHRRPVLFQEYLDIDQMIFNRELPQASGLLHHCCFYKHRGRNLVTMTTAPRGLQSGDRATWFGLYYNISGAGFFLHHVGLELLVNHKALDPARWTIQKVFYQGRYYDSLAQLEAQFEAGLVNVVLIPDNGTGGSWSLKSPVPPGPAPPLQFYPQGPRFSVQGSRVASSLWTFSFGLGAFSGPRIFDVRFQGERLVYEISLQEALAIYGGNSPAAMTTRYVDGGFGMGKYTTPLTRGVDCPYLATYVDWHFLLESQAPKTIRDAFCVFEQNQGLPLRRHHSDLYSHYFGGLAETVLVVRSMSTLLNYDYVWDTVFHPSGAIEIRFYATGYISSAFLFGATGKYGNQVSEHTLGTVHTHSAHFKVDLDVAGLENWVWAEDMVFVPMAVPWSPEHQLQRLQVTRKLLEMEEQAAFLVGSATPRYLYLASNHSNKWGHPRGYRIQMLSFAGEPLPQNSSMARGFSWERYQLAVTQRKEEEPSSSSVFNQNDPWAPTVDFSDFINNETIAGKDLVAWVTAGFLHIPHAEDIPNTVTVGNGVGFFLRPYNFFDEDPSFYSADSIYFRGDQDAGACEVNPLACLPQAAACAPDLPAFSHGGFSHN
Assay type: biochemical
Method: Human VAP-1 enzyme inhibition test
This test was conducted by modifying the method of P. H. Yu et al. (Diabetologia 40 1243 (1997)). Human VAP-1 enzyme (R&D Systems, Inc.) was pre-incubated in a 96-well plate with the compound dissolved in dimethylsulfoxide at room temperature for 20 minutes. Next, in a solution to the final volume of 200 μL, the enzyme reaction solution was incubated with ^14C-benzylamine (final concentration 100 μM) at 37° C. for 1 hour. The reaction was terminated by the addition of 100 μL of 2 M citric acid solution to the reaction solution. The oxidative product was extracted using a toluene/ethyl acetate mixture and the radioactivity was measured with a liquid scintillation counter. The inhibition ratio of the compound was calculated using the following equation. Inhibition ratio={1−[VAP-1 enzyme activity after treatment with the compound]/[VAP-1 enzyme activity in the presence of dimethylsulfoxide alone without the compound]}×100

Inhibition at 0.03 µM, ≥ 50%:
CCOC(=O)CCCON=C1CN(c2ncc(-c3cccc(COC(=O)NC(=N)N)c3F)cn2)C1 [Example 114, Ethyl 4-[({1-[5-(3-{[(carbamimidoylcarbamoyl)oxy]methyl}-2-fluorophenyl)pyrimidin-2-yl]azetidin-3-ylidene}amino)oxy]butanoate]
N=C(N)NC(=O)OCc1cccc(-c2cnc(N3CC(=NOCCCC(=O)O)C3)nc2)c1F [Example 115, 4-[({1-[5-(3-{[(Carbamimidoylcarbamoyl)oxy]methyl}-2-fluorophenyl)pyrimidin-2-yl]azetidin-3-ylidene}amino)oxy]butanoic acid]
CNC(=O)CCCON=C1CN(c2ncc(-c3cccc(COC(=O)NC(=N)N)c3F)cn2)C1 [Example 116, 2-Fluoro-3-[2-(3-{[4-(methylamino)-4-oxobutoxy]imino}azetidin-1-yl)pyrimidin-5-yl]benzyl carbamimidoylcarbamate]
CN(C)CCON=C1CN(c2ncc(-c3cccc(COC(=O)NC(=N)N)c3F)cn2)C1 [Example 117, 3-[2-(3-{[2-(Dimethylamino)ethoxy]imino}azetidin-1-yl)pyrimidin-5-yl]-2-fluorobenzyl carbamimidoylcarbamate]
CN(CCON=C1CN(c2ncc(-c3cccc(COC(=O)NC(=N)N)c3F)cn2)C1)Cc1ccccc1 [Example 118, 3-{2-[3-({2-[Benzyl(methyl)amino]ethoxy}imino)azetidin-1-yl]pyrimidin-5-yl}-2-fluorobenzyl carbamimidoylcarbamate]
CC(=O)NCC(CO)CON=C1CN(c2ncc(-c3cccc(COC(=O)NC(=N)N)c3F)cn2)C1 (stereo not shown) [Example 120, 3-[2-(3-{[3-Acetamido-2-(hydroxymethyl)propoxy]imino}azetidin-1-yl)pyrimidin-5-yl]-2-fluorobenzyl carbamimidoylcarbamate]
CN(C)CC(CO)CON=C1CN(c2ncc(-c3cccc(COC(=O)NC(=N)N)c3F)cn2)C1 (stereo not shown) [Example 122, 3-[2-(3-{[3-(Dimethylamino)-2-(hydroxymethyl)propoxy]imino}azetidin-1-yl)pyrimidin-5-yl]-2-fluorobenzyl carbamimidoylcarbamate]
COC(CNC(C)=O)CON=C1CN(c2ncc(-c3cccc(COC(=O)NC(=N)N)c3F)cn2)C1 (stereo not shown) [Example 123, 3-(2-{3-[(3-Acetamido-2-methoxypropoxy)imino]azetidin-1-yl}pyrimidin-5-yl)-2-fluorobenzyl carbamimidoylcarbamate]
N=C(N)NC(=O)OCc1cccc(-c2cnc(N3CC(=NOCCN4CCCCC4)C3)nc2)c1F [Example 124, 2-Fluoro-3-[2-(3-{[2-(piperidin-1-yl)ethoxy]imino}azetidin-1-yl)pyrimidin-5-yl]benzyl carbamimidoylcarbamate]
N=C(N)NC(=O)OCc1cccc(-c2cnc(N3CC(=NOCCN4CCOCC4)C3)nc2)c1F [Example 125, 2-Fluoro-3-(2-{3-[(2-morpholinoethoxy)imino]azetidin-1-yl}pyrimidin-5-yl)benzyl carbamimidoylcarbamate]
N=C(N)NC(=O)OCc1cccc(-c2cnc(N3CC(=NOCCN4CCC4)C3)nc2)c1F [Example 126, 3-[2-(3-{[2-(Azetidin-1-yl)ethoxy]imino}azetidin-1-yl)pyrimidin-5-yl]-2-fluorobenzyl carbamimidoylcarbamate]
N=C(N)NC(=O)OCc1cccc(-c2cnc(N3CC(=NOCCN4CC(F)C4)C3)nc2)c1F [Example 128, 2-Fluoro-3-[2-(3-{[2-(3-fluoroazetidin-1-yl)ethoxy]imino}azetidin-1-yl)pyrimidin-5-yl]benzyl carbamimidoylcarbamate]
CN1CCOC(CON=C2CN(c3ncc(-c4cccc(COC(=O)NC(=N)N)c4F)cn3)C2)C1 (stereo not shown) [Example 130, 2-Fluoro-3-[2-(3-{[(4-methylmorpholin-2-yl)methoxy]imino}azetidin-1-yl)pyrimidin-5-yl]benzyl carbamimidoylcarbamate]
CC(=O)N1CCOC(CON=C2CN(c3ncc(-c4cccc(COC(=O)NC(=N)N)c4F)cn3)C2)C1 (stereo not shown) [Example 131, 3-[2-(3-{[(4-Acetylmorpholin-2-yl)methoxy]imino}azetidin-1-yl)pyrimidin-5-yl]-2-fluorobenzyl carbamimidoylcarbamate]
N=C(N)NC(=O)OCc1cccc(-c2cnc(N3CC(=NOCC4CCC(=O)O4)C3)nc2)c1F (stereo not shown) [Example 132, 2-Fluoro-3-[2-(3-{[(5-oxotetrahydrofuran-2-yl)methoxy]imino}azetidin-1-yl)pyrimidin-5-yl]benzyl carbamimidoylcarbamate]
N=C(N)NC(=O)OCc1cccc(-c2cnc(N3CC(=NOCc4ccccc4)C3)nc2)c1F [Example 135, 3-(2-{3-[(Benzyloxy)imino]azetidin-1-yl}pyrimidin-5-yl)-2-fluorobenzyl carbamimidoylcarbamate]
COc1ccc(CON=C2CN(c3ncc(-c4cccc(COC(=O)NC(=N)N)c4F)cn3)C2)cc1 [Example 136, 2-Fluoro-3-[2-(3-{[(4-methoxybenzyl)oxy]imino}azetidin-1-yl)pyrimidin-5-yl]benzyl carbamimidoylcarbamate]
CN1CC(ON=C2CN(c3ncc(-c4cccc(COC(=O)NC(=N)N)c4F)cn3)C2)C1 [Example 137, 2-Fluoro-3-[2-(3-{[(1-methylazetidin-3-yl)oxy]imino}azetidin-1-yl)pyrimidin-5-yl]benzyl carbamimidoylcarbamate]
CC(=O)N1CC(ON=C2CN(c3ncc(-c4cccc(COC(=O)NC(=N)N)c4F)cn3)C2)C1 [Example 138, 3-[2-(3-{[(1-Acetylazetidin-3-yl)oxy]imino}azetidin-1-yl)pyrimidin-5-yl]-2-fluorobenzyl carbamimidoylcarbamate]
N=C(N)NC(=O)OCc1cccc(-c2cnc(N3CC(=NOC4CN(Cc5ccccc5)C4)C3)nc2)c1F [Example 139, 3-[2-(3-{[(1-Benzylazetidin-3-yl)oxy]imino}azetidin-1-yl)pyrimidin-5-yl]-2-fluorobenzyl carbamimidoylcarbamate]
N=C(N)NC(=O)OCc1cccc(-c2cnc(N3CC(=NOC4CN(CC(F)(F)F)C4)C3)nc2)c1F [Example 140, 2-Fluoro-3-{2-[3-({[1-(2,2,2-trifluoroethyl)azetidin-3-yl]oxy}imino)azetidin-1-yl]pyrimidin-5-yl}benzyl carbamimidoylcarbamate]
CCN1CC(ON=C2CN(c3ncc(-c4cccc(COC(=O)NC(=N)N)c4F)cn3)C2)C1 [Example 142, 3-[2-(3-{[(1-Ethylazetidin-3-yl)oxy]imino}azetidin-1-yl)pyrimidin-5-yl]-2-fluorobenzyl carbamimidoylcarbamate]
COC(=O)N1CC(ON=C2CN(c3ncc(-c4cccc(COC(=O)NC(=N)N)c4F)cn3)C2)C1 [Example 143, Methyl 3-[({1-[5-(3-{[(carbamimidoylcarbamoyl)oxy]methyl}-2-fluorophenyl)pyrimidin-2-yl]azetidin-3-ylidene}amino)oxy]azetidin-1-carboxylate]
N=C(N)NC(=O)OCc1cccc(-c2cnc(N3CC(=NOC4CN(CCO)C4)C3)nc2)c1F [Example 146, 2-Fluoro-3-{2-[3-({[1-(2-hydroxyethyl)azetidin-3-yl]oxy}imino)azetidin-1-yl]pyrimidin-5-yl}benzyl carbamimidoylcarbamate]
COCCN1CC(ON=C2CN(c3ncc(-c4cccc(COC(=O)NC(=N)N)c4F)cn3)C2)C1 [Example 147, 2-Fluoro-3-{2-[3-({[1-(2-methoxyethyl)azetidin-3-yl]oxy}imino)azetidin-1-yl]pyrimidin-5-yl}benzyl carbamimidoylcarbamate]
